Legend:
[1] = test system: LAPC4 (human prostate adenocarcinoma); assay: Cytotoxic activity, LAPC4; format: cell-based; conditions: mean ±SD
Method: (§1) Compounds presented in Table 6 were also tested in the following cell lines: PC-3 (human prostate adenocarcinoma), LNCaP (human prostate adenocarcinoma), LAPC4 (human prostate adenocarcinoma) and HT-29 (human colon adenocarcinoma).

[2] = test system: PC-3 (human prostate adenocarcinoma); assay: Cytotoxic activity, PC-3; format: cell-based; conditions: mean ±SD
Method: as §1

Chang liver cells = assay: Cell cycle analysis by flow cytometry (FACS, PI), Chang liver; format: cell-based, human; conditions: for effect on cell cycle in non-malignant cell line: IC80 values determined for HepG2, 72 h; for Phase of cell cycle (% of cells) G0/G1 / Phase of cell cycle (% of cells) G2/M / Phase of cell cycle (% of cells) S: compound at IC80 determined for HepG2, 72 h
Method: The effects on the cell cycle of some of these compounds were assessed through flow cytometry by using a fluorescence-activated cell sorter (FACS) (Table 5 below). For this assay 2.3×10^5 HepG2 cells/well, 2.9×10^4 HeLa cells/well, 1.6×10^5 Jurkat cells/well and 1.4×10^5 Chang liver cells/well were plated in 6 well plates with 2 ml of medium. The number of cells was determined by the relationship number of cells/area wells, considering the number of cells that were cultured in 96-well plates. […] Following 72 h. of incubation, cells were harvested by mild trypsinization, collected by centrifugation and stained in ice-cold Tris-buffered saline (TBS), containing 1 mg/ml PI, 10 mg/ml RNAse free of DNAase and 0.1% Igepal CA-630 for 1 h at 4° C. FACS analysis was carried out at 488 nm in an Epics XL flow cytometer (Coulter Corporation, Hialeah, Fla.). Data from 8×10^3 cells were collected and analyzed using Multicycle program (Phoenix Flow Systems, San Diego, Calif.). All experiments were performed three times with three replicates per experiment. […] To explore the selectivity of the effect on tumor cells, we also tested compounds 20, 44 and 46 in a non-malignant cell line.

[3] = test system: LNCaP (human prostate adenocarcinoma); assay: Cytotoxic activity, LNCaP; format: cell-based; conditions: mean ±SD
Method: as §1

Row | Compound | IC50 [1] | IC50 [2] | effect on cell cycle in non-malignant cell line (Chang liver cells) | Phase of cell cycle (% of cells) G0/G1 (Chang liver cells) | Phase of cell cycle (% of cells) G2/M (Chang liver cells) | Phase of cell cycle (% of cells) S (Chang liver cells) | IC50 [3]
1 | C=C(C)[C@@H]1CC[C@]2(CO)CC[C@]3(C)[C@H](CC[C@@H]4[C@@]5(C)CC[C@H](OC(=O)n6ccnc6)C(C)(C)[C@@H]5CC[C@]43C)[C@@H]12 [Compound 20, 28-hydroxy-lup-20(29)-en-3β-yl-1H-imidazole-1-carboxylate] | 16.4 ± 2.1 µM | 9.2 ± 0.7 µM | no effect | 68.6 ± 4.2 % of cells | 9.3 ± 1.3 % of cells | 22.0 ± 3.0 % of cells | 15 ± 1.8 µM
2 | C=C(C)[C@@H]1CC[C@]2(C(=O)n3ccnc3)CC[C@]3(C)[C@H](CC[C@@H]4[C@@]5(C)CCC(=O)C(C)(C)[C@@H]5CC[C@]43C)[C@@H]12 [Compound 44, 28-(1H-imidazol-1-yl)-lup-20(29)-en-3,28-dione] | 17.2 ± 2.3 µM | 6.9 ± 1.1 µM | no effect | 68.2 ± 2.9 % of cells | 8.6 ± 0.8 % of cells | 23.2 ± 2.5 % of cells | 13.7 ± 0.5 µM
3 | C=C(C)[C@@H]1CC[C@]2(C(=O)n3ccnc3)CC[C@]3(C)[C@H](CC[C@@H]4[C@@]5(C)C=CC(=O)C(C)(C)[C@@H]5CC[C@]43C)[C@@H]12 [Compound 46, 28-(1H-imidazol-1-yl)-lup-1,20 (29)-dien-3,28-dione] |  |  | no effect | 68.2 ± 4.9 % of cells | 9.2 ± 1.4 % of cells | 22.6 ± 3.8 % of cells | 

Reference: US8969395B2, “Triterpenoid derivatives useful as antiproliferative agents” (Universidade de Coimbra, priority 2009, dated 2015)
